# Test results as given in patent US20110160462A1, “CRYSTALLINE FORMS OF THIAZOLIDINEDIONE COMPOUND AND ITS MANUFACTURING METHOD” (DAIICHI SANKYO COMPANY, LIMITED, priority 2008, published 2011).
# Entries after “also recorded” stand apart in the source; their conditions may differ. Where two headings read alike, the source gives them in different places.
# How the values were obtained:
# [1] = Solubility in dilute hydrochloric acid (Test Example 3); conditions: for The concentration of 5-(4-{[6-(4-amino-3,5-dimethylphenoxy)-1-methyl-1-H-benzimidazol-2-yl]methoxy}benzyl)-1,3-thiazolidine-2,4-dione in dilute hydrochloric acid: dilute hydrochloric acid 9.6 mg/g (pH about 0.7), 25° C., 500 mg in 5 mL, sampled after 6 minutes
# Description: Concentrated hydrochloric acid was diluted with water to prepare dilute hydrochloric acid (with a pH of about 0.7 at 25° C.) with a hydrochloric acid concentration of 9.6 mg/g, which was used as a test liquid. 500 mg of the crystalline form was weighed and added to 5 mL of the test liquid at 25° C. and stirred at the same temperature. After 6 minutes, the resulting test liquid was sampled and filtered. The concentration of 5-(4-{[6-(4-amino-3,5-dimethylphenoxy)-1-methyl-1-H-benzimi dazol-2-yl]methoxy}benzyl) 3-thiazolidine-2,4-dione in the filtrate was determined.
# The concentration of 5-(4-{[6-(4-amino-3,5-dimethylphenoxy)-1-methyl-1-H-benzimi dazol-2-yl]methoxy}benzyl) 3-thiazolidine-2,4-dione was determined by the method described below.
# Water, acetonitrile and methanol were mixed in a volume ratio of 55:40:5 to form a sample solvent.
# In the sample solvent was dissolved 0.2 g of isoamyl 4-hydroxybenzoate so that 200 mL of an internal standard solution was obtained. About 0.04 g of a standard sample of 5-(4-{[6-(4-amino-3,5-dimethylphenoxy)-1-methyl-1-H-benzimi dazol-2-yl]methoxy}benzyl)-1,3-thiazolidine-2,4-dione dihydrochloride monohydrate was precisely weighed, transferred to a 200 mL measuring flask and dissolved in the sample solvent to form 200 mL of a solution. 5 mL of the solution was precisely measured and transferred to a 50 mL measuring flask. 10 mL of the internal standard solution was precisely added to the measuring flask, and the sample solvent was further added thereto to form 50 mL of a standard solution.
# After sampling, the test liquid was filtered, and about 0.04 g of the filtered test liquid was precisely weighed and transferred to a 50 mL measuring flask. About 2.5 mL of dimethyl sulfoxide was added thereto. After 10 mL of the internal standard solution was added thereto, the sample solvent was further added thereto to form 50 mL of a sample solution.
# The concentration was measured under the test conditions below.
# The concentration is calculated from the following formula.
# The concentration (mg/g) of the test liquid=1000×(QT×WS×FP×502.58)/(QS×WT×40×593.52),
# wherein WS: the weight (g) of the standard sample when the standard solution is prepared; WT: the weight (g) of the test liquid when the sample solution is prepared; FP: the purity factor of the standard sample; QS: the value obtained by dividing the peak area of the standard sample in the chromatogram of the standard solution by the peak area of the internal standard; and QT: the value obtained by dividing the peak area of the sample in the chromatogram of the sample solution by the peak area of the internal standard.
# [2] = system: human non-small-cell lung cancer; conditions: Test Example 5 in WO 2007/091622, cited from earlier work
# human kidney cancer = conditions: Test Example 7 in WO 2007/091622, cited from earlier work
# human leukemia cells = conditions: Test Example 2 in WO 2007/091622; cited from earlier work
# cancer cells [3] = conditions: in combination with an epidermal growth factor receptor (EGFR) inhibitor; Test Example 4 in WO 2007/091622; cited from earlier work
# [4] = system: cancer cells including human stomach cancer cells, human breast cancer cells, small cell lung cancer, pancreas cancer cells, prostate cancer cells, kidney …; conditions: Test Example 1 in WO 2007/091622; cited from earlier work
# cancer cells [5] = conditions: in combination with a VEGFR inhibitor or a Raf kinase inhibitor; Test Example 6 in WO 2007/091622; cited from earlier work
# [6] = system: human colon cancer cell lines; conditions: Test Example 3 in WO 2007/091622; cited from earlier work
# [7] = as disclosed in Japanese Patent No. 3488099; cited from earlier work
# [8] = target: T1, peroxisome proliferator-activated receptor (PPAR) γ (Homo sapiens, UniProt P37231); conditions: as disclosed in Patent Documents 1 to 5; cited from earlier work
# T1 sequence (P37231 1-505): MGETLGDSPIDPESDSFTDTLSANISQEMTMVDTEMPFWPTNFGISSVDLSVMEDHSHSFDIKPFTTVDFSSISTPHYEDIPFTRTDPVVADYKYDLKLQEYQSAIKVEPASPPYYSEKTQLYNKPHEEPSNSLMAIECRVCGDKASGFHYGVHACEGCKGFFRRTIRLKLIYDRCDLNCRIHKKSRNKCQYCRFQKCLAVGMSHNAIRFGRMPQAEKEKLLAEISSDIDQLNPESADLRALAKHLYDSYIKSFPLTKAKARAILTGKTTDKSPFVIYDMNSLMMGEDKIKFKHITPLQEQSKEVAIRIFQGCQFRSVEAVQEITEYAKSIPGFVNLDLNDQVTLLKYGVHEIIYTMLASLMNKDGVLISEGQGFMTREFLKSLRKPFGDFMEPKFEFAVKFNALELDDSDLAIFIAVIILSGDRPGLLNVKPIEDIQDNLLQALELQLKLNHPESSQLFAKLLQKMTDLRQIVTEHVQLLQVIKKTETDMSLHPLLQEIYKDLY
smiles,measurement,setting,value
"Cc1cc(Oc2ccc3nc(COc4ccc(CC5SC(=O)NC5=O)cc4)n(C)c3c2)cc(C)c1N.Cl.Cl.O (centres unmarked) [Crystalline form A, 5-(4-{[6-(4-amino-3,5-dimethylphenoxy)-1-methyl-1-H-benzimidazol-2-yl]methoxy}benzyl)-1,3-thiazolidine-2,4-dione dihydrochloride monohydrate]","The concentration of 5-(4-{[6-(4-amino-3,5-dimethylphenoxy)-1-methyl-1-H-benzimidazol-2-yl]methoxy}benzyl)-1,3-thiazolidine-2,4-dione in dilute hydrochloric acid","[1]; listed as Crystalline form A manufactured according to Example 4, dihydrochloride monohydrate",0.325 mg/g
same,"Solubility / concentration in dilute hydrochloric acid, comparison in words","[1]; dilute hydrochloric acid, dihydrochloride monohydrate",highest concentration among the dihydrochloride monohydrate crystalline forms; also recorded: higher solubility than Crystalline form B
"Cc1cc(Oc2ccc3nc(COc4ccc(CC5SC(=O)NC5=O)cc4)n(C)c3c2)cc(C)c1N.Cl.Cl (centres unmarked) [dihydrochloride of Compound (I), 5-(4-{[6-(4-amino-3,5-dimethylphenoxy)-1-methyl-1-H-benzimidazol-2-yl]methoxy}benzyl)-1,3-thiazolidine-2,4-dione dihydrochloride]",antitumor activity against human non-small-cell lung cancer,[2]; alone,has antitumor activity
same,antitumor activity against human non-small-cell lung cancer in combination,[2]; in combination with an EGFR inhibitor,enhanced antitumor activity
same,antitumor activity against human kidney cancer,human kidney cancer; alone,has antitumor activity
same,antitumor activity against human kidney cancer in combination,human kidney cancer; in combination with a VEGFR inhibitor or a Raf kinase inhibitor,enhanced antitumor activity
same,growth inhibition of human leukemia cells,human leukemia cells,significantly inhibits the growth-inhibiting activity
same,activity to inhibit the growth of cancer cells in combination,cancer cells [3],synergistic activity to inhibit the growth
same,activity to inhibit the growth of cancer cells,[4],significant activity to inhibit the growth
same,activity to inhibit the growth of cancer cells in combination,cancer cells [5],synergistic activity to inhibit the growth
same,antitumor activity in vivo against human colon cancer cell lines,[6],significant antitumor activity
"Cc1cc(Oc2ccc3nc(COc4ccc(CC5SC(=O)NC5=O)cc4)n(C)c3c2)cc(C)c1N.Cl.Cl.O (centres unmarked) [5-(4-{[6-(4-amino-3,5-dimethylphenoxy)-1-methyl-1-H-benzimidazol-2-yl]methoxy}benzyl)-1,3-thiazolidine-2,4-dione dihydrochloride monohydrate]","The concentration of 5-(4-{[6-(4-amino-3,5-dimethylphenoxy)-1-methyl-1-H-benzimidazol-2-yl]methoxy}benzyl)-1,3-thiazolidine-2,4-dione in dilute hydrochloric acid",[1]; dihydrochloride monohydrate,0.276 mg/g
"Cc1cc(Oc2ccc3nc(COc4ccc(CC5SC(=O)NC5=O)cc4)n(C)c3c2)cc(C)c1N (centres unmarked) [Compound (I), 5-(4-{[6-(4-amino-3,5-dimethylphenoxy)-1-methyl-1-H-benzimidazol-2-yl]methoxy}benzyl)-1,3-thiazolidine-2,4-dione]",activity to ameliorate insulin resistance and to reduce blood sugar,[7],significant activity to ameliorate insulin resistance and to reduce blood sugar
same,ability to activate PPAR γ,[8],significant ability to activate
